# Assay results as given in US6416965B2, “Screening methods for presqualene disphosphate analogs” (Brigham and Women's Hospital, priority 1997, dated 2002).
# Experiments:
# neutrophils = assay: Neutrophil homotypic adhesion (aggregation, light transmittance); format: cell-based, human
# Protocol: (§1) Neutrophils (10^7/500 μl) were electroporated (1.65 kV/cm, 250 μF, Ω∞, Invitrogen Electroporator VI) at 0° C. in the presence of 10−^9-10−^6 M compound VI, VIII, FDP, FMP, squalene or vehicle (ethanol 0.2%). After electroporation, cells, in cytochrome c (0.7 mg/ml), were exposed (10 minutes, 37° C.) to either cytochalasin b (5 μg/mL) and FMLP (10^−7 M)(a) or PMA ((10^−7 M)(b) and supernatants monitored at […]. Electroporation gave a 49.9% reduction in FMLP-stimulated NADPH oxidase compared to naive cells. Values (FIGS. 4a and 4b) represent the mean±SEM for n≧3, d≧6. For adhesion (FIGS. 4c and 4d), changes in light transmittance were monitored (as in Fiore, S., Nicolaou, K. C., Caulfield, T., Kataoka, H. & Serhan, C. N. Biochem. J. 266, 25-31 (1990), the teachings of which are incorporated herein by reference) after addition of compounds VI, VIII (1.6 μM) or vehicle (0.5 min) and FMLP (0.5-5 μM) (2.5 min). Cell viability remained>99%. Values represent the mean±SEM for n=3, d=9. 1,4,5-inositol-triphosphate levels were determined (Amersham) in fresh PMN (10^7 cells) exposed (5 minutes, 37° C.) to compound VI, compound VIII (1 μM) or vehicle and stimulated with FMLP (10^−7M, 37° C.) (as in FIG. 4e). % Inhibition after 10 second exposure to FMLP is reported as mean±SEM for n=4, d≧8. *p <0.05 in Student's paired t-test compared with control, while “NS” indicates no significant change compared to incubations in the presence of vehicle (ethanol 0.2%) alone. Stereochemistry of PSDP and PSMP (FIG. 4f) were assigned by routine methods (Poulter, C. D. and Rilling, H. C. Acc. Chem. Res. 11, 307-313, (1978), the teachings of which are hereby incorporated by reference).
# human neutrophils = assay: FMLP-stimulated 1,4,5-inositol triphosphate (IP3) formation as surrogate for phospholipase C activity; format: cell-based; details: for inhibition of FMLP-triggered IP3 formation: compound 1 μM, 5 min 37° C., FMLP 100 nM, 10 seconds
# Protocol: as §1
# In addition to PLD, phospholipase C plays a critical role in intracellular signaling via the hydrolysis of inositol lipids to diacyl glyceride (DAG) and inositol trisphosphate (IP3) to effect a cascade of cellular events in response to pro-inflammatory stimuli. DAG activates protein kinases and is converted, in part, to phosphatidic acid by DAG kinase. Therefore, PLC together with DAG kinase provides a second major source of phosphatidic acid in human neutrophils (Agwu, DE, et al., Journal of Clinical Investigation 1991; 88:531). […] To this end, the impact of PSDP on fMLP-stimulated IP3 formation as a surrogate for phospholipase C activity was examined (FIG. 4e).
# Amersham's D-myo-inositol 1,4,5-trisphosphate (IP3) [^3H] assay was used for this procedure (Amersham code TRK 1000, including product assay, the contents of which are incorporated herein by reference). The assay is based on procedures developed by Takata S. et al. J. Clin. Invest. 93:499 (1994) and Dillon S. B. et al. J. Biol. Chem. 262:11546 (1987), the contents of which are incorporated herein by reference in their entirety. [drawing 24] […]
smiles,measurement,setting,value
"CC(C)=CCC/C(C)=C/CC/C(C)=C/C1C(COP(=O)(O)OP(=O)(O)O)C1(C)CC/C=C(\C)CCC=C(C)C (stereo in doubt) [Compound VI, presqualene diphosphate]",stimulation of adhesion by the compound alone,neutrophils; no agonist,neither compound VI nor VIII alone stimulated
same,inhibition of FMLP-stimulated homotypic adhesion,neutrophils; μM levels,inhibited
same,inhibition of the aggregatory response to FMLP (homotypic adhesion),"neutrophils; μM levels (1.6 μM), FMLP 0.5-5 μM, intact cells, p<0.001",63%
same,inhibition of FMLP-triggered IP3 formation,human neutrophils,56%
same,inhibition of FMLP-triggered IP3 formation,human neutrophils; listed as PSDP,> 50%
same,"inhibition of 1,4,5-inositol-triphosphate formation",human neutrophils; nM-μM amounts,inhibited
